Reference: the supplement of paper PMC10307832

Experiments:
Linsitinib = compound: C[C@]1(O)C[C@@H](c2nc(-c3ccc4ccc(-c5ccccc5)nc4c3)c3c(N)nccn32)C1 [Linsitinib]; test: relative viability (nuclei count vs DMSO), 5 days (fraction); higher = more cells survive
Procedure, shortened: (§1)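 Hoechst staining, done together with fixation and permeabilisation, marked nuclei for 4× imaging and MetaXpress counting. This followed 5 days without medium change after lung cancer cell lines, kept overnight at 37 °C in 1536-well plates, were pinned with five library-drug doses (not always all listed) spaced by √10 on vehicle-anchored plates. Viability is the ratio of treated-well to vehicle-well nuclei, expressed as a median across plates. Plates passed only at control CV below 25% with at least one doubling.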

Ispinesib = compound: Cc1ccc(C(=O)N(CCCN)[C@@H](c2nc3cc(Cl)ccc3c(=O)n2Cc2ccccc2)C(C)C)cc1 [Ispinesib]; test: as above
Procedure, shortened: as §1

Row | Cell Line | relative viability (Linsitinib; 0.01 µM) | relative viability (Linsitinib; 0.03162 µM) | relative viability (Linsitinib; 0.1 µM) | relative viability (Linsitinib; 0.3162 µM) | relative viability (Linsitinib; 1 µM) | relative viability (Linsitinib; 1 µM, anchor plate) | relative viability (Ispinesib; 0.001 µM) | relative viability (Ispinesib; 0.003162 µM) | relative viability (Ispinesib; 0.01 µM) | relative viability (Ispinesib; 0.03162 µM) | relative viability (Ispinesib; 0.1 µM)
1 | NCI-H2085 | 0.93 | 1 | 1.05 | 0.915 | 0.906 | 0.888 | 1.02 | 1.02 | 1.06 | 0.854 | 0.536
2 | NCI-H2087 | 1.07 | 1.04 | 1.13 | 0.615 | 0.683 | 0.908 | 1.01 | 1.03 | 1.23 | 0.335 | 0.137
3 | NCI-H2126 | 1.01 | 0.971 | 1 | 0.818 | 0.71 | 0.715 | 0.978 | 1.08 | 1.06 | 0.992 | 0.564
4 | NCI-H2170 | 1.02 | 0.962 | 0.939 | 0.746 | 1.02 |  | 1.03 | 1.05 | 1.08 | 0.599 | 0.253
5 | NCI-H2228 | 0.882 | 0.873 | 0.768 | 0.752 | 0.746 | 0.741 | 1.03 | 1 | 1.38 | 0.688 | 0.344
6 | NCI-H2342 | 0.889 | 1.07 | 0.86 | 1.01 | 0.768 |  | 0.986 | 0.942 | 1.04 | 0.935 | 0.638
7 | NCI-H2347 | 1.09 | 1.19 | 0.981 | 0.805 | 0.942 | 0.935 | 1.03 | 1.1 | 1.13 | 0.897 | 0.87
8 | NCI-H2405 | 0.93 | 0.966 | 1 | 0.821 | 0.678 | 0.891 | 1.05 | 1.05 | 1.05 | 0.884 | 0.561
9 | NCI-H3122 | 0.99 | 0.947 | 1 | 0.575 | 1.02 | 1.01 | 1.09 | 1.06 | 1.01 | 0.779 | 0.172
10 | PC-3 [JPC-3] | 1.04 | 1.06 | 1.1 | 0.947 | 0.916 | 0.949 | 1.06 | 1.15 | 1.09 | 0.909 | 0.533
11 | PC-14 | 0.963 | 0.929 | 0.981 | 0.895 | 0.867 | 0.959 | 1.06 | 1.09 | 0.898 | 0.404 | 0.121
12 | RERF-LC-KJ | 1 | 1.01 | 0.949 | 0.682 | 0.871 | 0.878 | 1.04 | 0.975 | 1.03 | 0.684 | 0.331
13 | SK-LU-1 | 1.01 | 0.859 | 1.03 | 0.6 | 0.967 | 0.999 | 1.15 | 1.15 | 1.16 | 0.881 | 0.592
14 | SK-MES-1 | 0.962 | 1.01 | 1.01 | 0.811 | 0.874 | 1.05 | 1.06 | 1.11 | 1.06 | 0.56 | 0.252
15 | SW 900 | 0.885 | 0.986 | 0.862 | 0.538 | 0.477 |  | 0.858 | 0.995 | 1.05 | 0.683 | 0.283
16 | SW 1573 | 1.04 | 1.01 | 0.98 | 0.796 | 0.723 | 0.801 | 1.01 | 0.973 | 1.1 | 0.666 | 0.343
